The test system of one data set is ARPE-19 cells. Kind of data set: ARPE-19 cytotoxicity of liposomal complexes, MTT assay. It is filed as cell-based. The conditions noted are these: similar concentrations as cycloretinal, 96-h period. On the procedure: (§1) The liposomal complexes were prepared as follows. Cycloretinal (10 mg), β-Ionone (20 mg), and 2,4-Dimethylbenzaldehyde (20 mg) were dissolved separately in ethanol (1 mL). Glyoxal (5.80 mg), methylglyoxal (7.21 mg), and β-cyclocitral (15.2 mg) were dissolved separately in chloroform (1 mL). A liposome solution of cholesterol (112 mg), Tween 80 (504 mg), and L-α-phosphatidylcholine (730 mg) were dissolved in 16 mL of chloroform. Liposome solution (2 mL) was added to each of the compounds. The solvents were removed under vacuum and charged with nitrogen. Each of the flasks were then mixed with 5 mL of water and stirred at 60° C. for 1 h. Each solution was placed on ice and sonicated with a probe sonicator (15 seconds on/15 seconds off) for 5 min. The solutions were centrifuged at 11,000×g for 30 min and filtered through a 0.2 μm filter. Each sample (10 μL) was added to 1 mL ethanol and measured by absorption via UV-Vis spectroscopy. The extinction coefficients were 9970 M^−1cm^−1, 26343 M^−1cm^−1, and 13476 M^−1cm^−1 for cycloretinal, 2,4-dimethylbenzaldehyde, and β-ionone, respectively. […]
(§2) Cell viability was assessed with the MTT cell proliferation assay. […] The absorbance was subsequently evaluated at 570 nm utilizing a microplate reader (quant absorbance plate reader, BioTek Instruments Inc.) […]
In general terms: Tetrazolium assays rely on reduction of a dye to a coloured formazan, in cell work by metabolically active cells.

Data set [1] can be described thus: MsP1 catalyzed degradation of cycloretinal; visual inspection and HPLC time course of degradation products. It is filed as biochemical. The note with it: at 12 hours. As to the method:
After 24 hours of incubation, broth cultures were transferred to sterile Eppendorf tubes and the organics extracted using an equal volume of dichloromethane (DCM) through vigorous vortexing. The organics were separated by centrifugation (13,000 rpm for 20 minutes), retrieved with a needle, and subsequently concentrated under nitrogen. The dried product was solubilized in 20 μL DCM and analyzed by high performance liquid chromatography (HPLC). HPLC analysis was performed on a Varian Prostar system equipped with a Phenomenex 5 μm 100 Å normal phase column (250×10 mm×5 micron), a UV detector set at 320 nm wavelength and mobile phase comprising 97% DCM and 3% methanol with flow rate of 2 mL/min. Products eluted were further analyzed by GC-MS.
Substrate emulsions (0.01%) were prepared, and Tween 40 was used to enhance solubilization of compounds, or otherwise dissolved in ethanol or DMSO. […]
To generate a standard curve for the degradation products, different concentrations of 2,4-dimethyl benzaldehyde (2, 4, 6, 8, 10 μg/20 μL) and β-ionone (1, 2, 3, 4 μg/20 μL) were analyzed by HPLC under the same conditions as as detailed in Example 3.
To identify the degradation products, cycloretinal was incubated for 1 hour with MsP1 in the presence of hydrogen peroxide. Following incubation, the reaction mixture was extracted and analyzed by GC-MS. […]

The next data set in a line: in vitro. Format: cell-based. The conditions noted are these: human, arpe-19 cells, EC50 (cytotoxicity). As to the method:
as §1, with “spectroscopy.” for “spectroscopy. The extinction coefficients were 9970 M^−1cm^−1, 26343 M^−1cm^−1, and 13476 M^−1cm^−1 for cycloretinal, 2,4-dimethylbenzaldehyde, and β-ionone, respectively.”
Following 24 hour incubation with the liposomal complexes, light induced cell damage was measured by exposing cells to 10 min of irradiation (70 W lamp) through a 430 nm bandpass filter (Thor labs, 430±2 nm). […]
as §2

The nature of data set [2]: Activity of MsP1 at different pH (cycloretinal degradation). It is filed as biochemical. On the procedure:
To determine the optimum pH for MsP1 activity, cycloretinal degradation reactions were carried out in PBS buffer as described herein but at different pH values by adjusting pH with either NaOH or HCl (i.e. a pH of 5.5, 6.4, 7.0, 7.5). Sample OD values were monitored using a UV-Vis spectrophotometer (Genesys™2, ThermoSpectronic) at 430 nm over a period of 300 seconds.

Entries after “also recorded” stand apart in the source; their conditions may differ.

In the case of `CC(=O)/C=C/C1=C(C)CCCC1(C)C` [β-ionone], in the data set with ARPE-19 cells, the “impact on cell viability / toxicity to ARPE-19 cells” value is listed as “no impact on cell viability; also recorded: do not exhibit toxicity”. For the same molecule, in data set [1], the “level of degradation product in MsP1/cycloretinal reaction (HPLC, standard curve)” value is “undetectable levels”. As a reminder, the CC50 is the concentration giving 50% cytotoxicity. As for `CC(C=CC1=C(C)CCCC1(C)C)=CC=CC1=CC=C(C=O)C(C)(C=CC=C(C)C=CC2=C(C)CCCC2(C)C)C1` (stereo not drawn) [cycloretinal], the midpoint of cytotoxicity in “in vitro”, the CC50 at 24 h, lay at 93 ± 6.1 µM. On to `O=CC=O` [glyoxal], for which the “impact on cell viability / toxicity to ARPE-19 cells” value in the data set with ARPE-19 cells is recorded as “no impact on cell viability; also recorded: do not exhibit toxicity”.

B1: MsP1: peroxidase enzyme from the organism Marasmius scorodonius, SEQ ID NO: 1; recombinant, N-terminal hexa-Histidine tag (protein, listed as Mycetinis scorodonius)
chain: MKLFSASVFAAIIASHYASATAHIRAPNVKPRRTNSLLTAPPQQPPLPSAQQAASASSSAGLNLTDIQGDILIGMKKNKELFFFFSITDAATFKAKLGSDILELITSTNQLLAVATQPITAVNVAFSSTGLKALGITDDLKDPVFEAGMLSNAVSDLSDPGTGNWVPGFVGTSVHGVFLLASDTIDNVNTELANIQTILNGSITEIHRLQGEARPGDQQGHEHFGFMDGISNPAVDGFTPPAEIRPGQALIPPGIMLLGEANDTFQNDRPPWAKDGSFLVFRQMQQRAPEFNKFLQDHALNMPNMTSEQGADLLGARIVGRWKSDAPIDLTPLVDDPVLAADNQRNNNFDFSDATNQTRCPFSAHIRKANPRGDLGGINKFPNQHIIRAGIPYGPEVTDAEKASNSSSTDPSLERGLAFVAYQSNIQNGFVFLQKNWVDNTNFFRPGTGVDPLIGTNSRNSGTDAPNTPRVVSGLDPNNATSTIEIGIDFVVSRGGEYFFSPSLSAIRTVLSV
modifications: MsP1 amino acid sequence
Take B1: in data set [2] (pH 5.5, 6.4, 7.0, 7.5 tested), the “optimal pH for MsP1 catalytic activity towards cycloretinal” value is given as 5.5. Besides, the “activity at lysosomal pH” value in data set [2] (pH of 5.5) was “highly active”.
